These results are taken from paper PMC9791066, “Investigations into the antibacterial effects and potential mechanism of gambogic acid and neogambogic acid” (Frontiers in Microbiology, 2022).

One experiment concerns the target T1, EfaUPPS (R42A) (Enterococcus faecalis, UniProt Q831K9, R48A).
T1 construct: His tag; made in house; host or cells: E. coli BL21(DE3)
Briefly: UPPS inhibition assay, EfaUPPS R42A mutant. It counts as biochemical. To be noted: for effect of mutation on inhibitory effect of compound on EfaUPPS enzyme activity: R42A mutant compared with wild-type. Here is the method:
(§1) The EfaUPPS site-directed mutagenesis was generated using QuikChange site-directed mutagenesis kit (Agilent) according to the manufacturer’s instructions. The purification of site-directed mutation was using a similar strategy as described above.
(§2) The UPPS inhibition assay was carried out by measuring the fluorescence of the reaction mixture in a black 96-well microtiter plate (Corning, United States). […] After the indicated incubation period, the reaction was terminated by the addition of 10 μl of 0.5 M EDTA solution. Transferred 50 μl of the reaction mixture into a new 96-well microtiter plate, and quenched with an equal volume of Master Reaction Mix (Pyrophosphate Assay Kit, Sigma-Aldrich, USA) for 30 min. The UPPS inhibitory activity was performed by calculating the fluorescence percentage through determining the fluorescence absorbance of reaction mixture at 316 and 456 nm. Data of UPPS inhibitory activities were plotted versus compound concentrations on a semi-log scale using GraphPad Prism7. All the results were the means of at least three biological replicates.

Experiment [1] deals with T2, EfaUPPS (I43A) (Enterococcus faecalis, UniProt Q831K9, I49A).
T2 construct: His tag; made in house; host or cells: E. coli BL21(DE3)
T2 sequence (Q831K9 whole entry I49A): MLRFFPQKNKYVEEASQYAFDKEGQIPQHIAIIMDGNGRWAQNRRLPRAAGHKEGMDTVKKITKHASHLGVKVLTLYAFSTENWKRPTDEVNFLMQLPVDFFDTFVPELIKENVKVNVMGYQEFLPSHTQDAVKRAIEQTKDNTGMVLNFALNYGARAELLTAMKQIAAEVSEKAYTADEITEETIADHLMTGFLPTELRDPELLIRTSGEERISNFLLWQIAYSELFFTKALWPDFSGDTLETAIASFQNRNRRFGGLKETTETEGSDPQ
The experiment in a line: UPPS inhibition assay, EfaUPPS I43A mutant. It counts as biochemical. Here is the method: as §1, §2

Another experiment has as its target T3, EfaUPPS (L91A) (Enterococcus faecalis, UniProt Q831K9, L97A).
T3 construct: His tag; made in house; host or cells: E. coli BL21(DE3)
Briefly: Microscale thermophoresis binding assay, EfaUPPS L91A. To be noted: MST, no binding. Here is the method:
(§3) To characterize the binding affinity between EfaUPPS and GA or NGA, the MST binding assay was performed as previously described ([Lin et al., 2020]). In brief, His-tagged EfaUPPS and site-directed mutated EfaUPPS were labeled with the NT- 647-NHS dye using the Monolith NTTM Protein Labeling Kit RED-NHS (NanoTemper Technologies). Two-fold serially diluted GA or NGA was mixed with 10 nM of labeled EfaUPPS or its derivatives in 10 μl of binding buffer (137 mM NaCl, 2.7 mM KCl, 10 mM Na2HPO4, 1.8 mM KH2PO4, and 0.05% Tween-20, pH 7.8), incubated for 15 min, at room temperature. And then, loaded the mixtures into NT.115 premium coated capillaries (NanoTemper Technologies). MST trace signals were collected from the IR laser on to off for about 20 s, under the 5% LED power and high MST power mode. The change of molecular thermophoresis was monitored by standardized fluorescence value Fnorm, and the binding curve was plotted according to the values of Fnorm. The formed complex affinity was analyzed by MO Affinity Analysis software version 2.3. Apparent dissociation constants (Kd) were calculated using nonlinear fitting assuming one specific binding site with the GraphPad Prism 7 software with the following formula: Y = B^∗Max X/KD + X.
(§4) (^∗ where BMax is the maximum theoretical specific binding; here BMax = 1).
A general note: MST reads how a fluorescent partner responds to local heating, with and without ligand.

For experiment [2], the target named is T2, EfaUPPS (I43A). Briefly: Microscale thermophoresis binding assay, EfaUPPS I43A. Here is the method: as §3, §4
The subject of a further experiment is E. faecalis ATCC29212. Briefly: Bacterial activity (bactericidal) test. The experiment is classed as cell-based, Enterococcus faecalis. The following applies: 2 μg/mL. How it is done:
The E. faecalis ATCC29212 were pre-cultured in LB broth at 200 rpm, 37°C overnight, and then the cultures were diluted to 7 × 10^5 CFU/mL by LB broth. A 96-well microtiter plate was inoculated with 200 μl the diluted cultures per well containing 0.1 mg/mL Resazurin with or without 2 μg/mL GA or NGA, followed by incubation at 37°C for 24 h, and then imaged. Three biological replicates were performed for each sample. To visualized the potential bactericidal properties for GA and NGA, the 24 h of GA/NGA-pretreated E. faecalis were coated on the plate to continue cultured overnight. The bactericidal properties of the compounds were determined by counting the bacterial CFUs.

For another experiment, the system named is E. faecalis infection. Briefly: E. faecalis infected mouse model. It counts as in vivo, C57BL/6 J mice. To be noted: oral dose (40 μM), 19 days. How it is done:
All animal studies had been reviewed and approved by the Animal Ethical and Welfare Committee of Nanjing University of Chinese Medicine. 8-week-old male C57BL/6 J mice were housed in groups of four mice per cage in a 12/12-h day light cycle with free access to food and water under conditions of controlled humidity (50 ± 5%) and temperature (22 ± 2°C). Mice were adaptively raised for a week before experiments. To explore the effects of GA and NGA on E. faecalis, the mice were randomly divided into four groups including control, E. faecalis, E. faecalis + GA and E. faecalis + NGA. Mice received an oral dose (40 μM) of GA or NGA from 30 min after E. faecalis (1 × 10^10 CFU) treatment for 19 days to sacrifice. The body weight of the mice was monitored daily. Afterwards mice spleens were collected and spleen weight was measured upon being sacrificed.
Spleen tissue sections of mice were fixed in 4% paraformaldehyde, dehydrated in alcohol, embedded in paraffin and then sliced into thin 5 μm sections. The tissues were then stained with hematoxylin & eosin (H&E). The tissue images were observed under an inverted microscope (Vectra 3.0, PerkinElmer, United States).
Retro-orbital blood was collected from the mice in asepsis tubes before dissection. The blood was centrifuged at 3500 g for 20 min to extract serum, which was stored at −20°C awaiting subsequent analyses. TNF-α-levels in serum was measured by ELISA according to the instructions of the manufacturer (eBioscience, United States).
Total RNA was extracted from the spleen of mice, and then the cDNA was synthesized with HiScript® II Q RT SuperMix for qPCR (Vazyme, China). qPCR was performed using the LightCycler®96 (Roche, Swiss). The qPCR primers of TNF-α (Forward: 5’-[…]-3′ and Reverse: 5’-[…]-3′) were designed and synthesized by GENERAY Biotechnology (Shanghai, China). GAPDH was used as the reference gene.

By IC50 is commonly meant the point on the concentration scale where inhibition reaches its midpoint. Read a high IC50 as lower potency. The term Kd denotes the free concentration of one partner at which half of the binding sites on the other are occupied at equilibrium, for simple one-to-one binding. The low end stands for higher affinity, the high end for lower affinity.

T1 sequence (Q831K9 whole entry R48A): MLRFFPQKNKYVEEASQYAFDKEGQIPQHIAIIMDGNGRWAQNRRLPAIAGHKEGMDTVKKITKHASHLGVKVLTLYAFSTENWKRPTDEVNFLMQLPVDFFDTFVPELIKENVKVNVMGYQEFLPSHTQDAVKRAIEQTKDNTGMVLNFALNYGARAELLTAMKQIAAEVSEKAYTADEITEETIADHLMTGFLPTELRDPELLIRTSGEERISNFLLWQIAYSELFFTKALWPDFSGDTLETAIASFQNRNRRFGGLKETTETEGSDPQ
T3 sequence (Q831K9 whole entry L97A): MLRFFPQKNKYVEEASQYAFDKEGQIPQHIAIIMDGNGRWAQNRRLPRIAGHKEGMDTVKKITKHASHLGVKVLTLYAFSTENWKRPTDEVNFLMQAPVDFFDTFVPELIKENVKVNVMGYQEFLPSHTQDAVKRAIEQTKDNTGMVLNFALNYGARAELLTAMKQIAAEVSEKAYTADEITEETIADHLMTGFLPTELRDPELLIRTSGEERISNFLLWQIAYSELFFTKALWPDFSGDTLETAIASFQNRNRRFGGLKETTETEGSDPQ

As for `CC(C)=CCC[C@]1(C)C=Cc2c(O)c3c(c(CC=C(C)C)c2O1)O[C@]12C(=C[C@@H]4C[C@H]1C(C)(C)O[C@@]2(C/C=C(/C)C(=O)O)C4=O)C3=O` [GA, gambogic acid], at EfaUPPS (R42A), half-maximal inhibition (IC50) was put at 5.39 µM and the “effect of mutation on inhibitory effect of compound on EfaUPPS enzyme activity” value is recorded as “does not have significant impact”. Also, at EfaUPPS (I43A) [1], the IC50 was ~30 µM. Moreover, the “effect of mutation on inhibitory effect of compound on EfaUPPS enzyme activity” value at EfaUPPS (I43A) [1] (I43A mutant compared with wild-type) is on record as “significantly decreased”. Besides, the “IC50 fold higher than that of the wild-type” value at EfaUPPS (I43A) [1] (I43A mutant vs wild-type (~3 μM)) is “about 10 fold”. Besides, the Kd at EfaUPPS (L91A) was > 50000 µM. On EfaUPPS (I43A) [2], the Kd is > 50000 µM. In addition, the “bactericidal properties (CFUs after 24 h pretreatment)” value in the experiment on E. faecalis ATCC29212 is listed as “potential bactericidal effects”. In addition, in the experiment with E. faecalis infection, the “body weight of E. faecalis infection mice” value is reported as “no observable effect”, the “spleen inflammation (H&E spleen slides)” value is “reduced signs of inflammation” and the “splenomegaly (spleen weight)” value was “significantly relieved splenomegaly”.

Turning to `CC(C)=CCC[C@]1(C)CC(O)c2c(O)c3c(c(CC=C(C)C)c2O1)O[C@]12C(=C[C@@H]4C[C@H]1C(C)(C)O[C@@]2(C/C=C(/C)C(=O)O)C4=O)C3=O` (stereo partly shown) [NGA, neogambogic acid], on EfaUPPS (R42A), the “effect of mutation on inhibitory effect of compound on EfaUPPS enzyme activity” value is “significantly reduced”. Also, the Kd on EfaUPPS (L91A) is > 50000 µM. In addition, the “bactericidal properties (CFUs after 24 h pretreatment)” value with E. faecalis ATCC29212 is recorded as “potential bactericidal effects”. Also, in the experiment with E. faecalis infection, the “TNF-α mRNA in spleen (qPCR)” value is given as “significant downregulation”, the “body weight of E. faecalis infection mice” value is listed as “no observable effect”, the “spleen inflammation (H&E spleen slides)” value is on record as “reduced signs of inflammation” and the “splenomegaly (spleen weight)” value is recorded as “significantly relieved splenomegaly”. Further, in the experiment with E. faecalis infection (vs E. faecalis group), the “TNF-α-levels in serum (ELISA)” value was “significantly reduced”.
